Test results from PubChem BioAssay AID1963976 (Molecular Pharmacology Branch, DTP, NCI, 2024).
pIC50: −log10 of the molar value. Values belong to the molecule of their own block, whether it stands above or below them.

System: 435261-313-R-J1-PDC tumor spheroid viability
Assay: Anticancer human tumor 435261-313-R-J1-PDC patient-derived colon adenocarcinoma cell line growth inhibition [PI3K]
Conditions: spheroids with HUVEC and MSC; for pIC50: curve of first compound; for viability, T/C: stronger effect = lower value
Outline: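 Viability of mixed-cell spheroids was determined after exposure to pairwise combinations, one partner being inavolisib, alpelisib, duvelisib or copanlisib. Highest tested concentration matched clinical Cmax where known and 10 microM where not, descending in half-log steps.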

[1] = second compound 0.0316 µM, first compound 0.0316 µM
[2] = second compound 0.0316 µM, first compound 0.1 µM
[3] = second compound 0.0316 µM, first compound 0.316 µM
[4] = second compound 0.0316 µM, first compound 1 µM
[5] = second compound 0.0316 µM, first compound 3.16 µM
[6] = second compound 0.0316 µM, first compound 10 µM
[7] = second compound 0.1 µM, first compound 0.0316 µM
[8] = second compound 0.1 µM, first compound 0.1 µM
[9] = second compound 0.1 µM, first compound 0.316 µM
[10] = second compound 0.1 µM, first compound 1 µM
[11] = second compound 0.1 µM, first compound 3.16 µM
[12] = second compound 0.1 µM, first compound 10 µM
[13] = second compound 0.316 µM, first compound 0.0316 µM
[14] = second compound 0.316 µM, first compound 0.1 µM
[15] = second compound 0.316 µM, first compound 0.316 µM
[16] = second compound 0.316 µM, first compound 1 µM
[17] = second compound 0.316 µM, first compound 3.16 µM
[18] = second compound 0.316 µM, first compound 10 µM
[19] = second compound 1 µM, first compound 0.0316 µM
[20] = second compound 1 µM, first compound 0.1 µM
[21] = second compound 1 µM, first compound 0.316 µM
[22] = second compound 1 µM, first compound 1 µM
[23] = second compound 1 µM, first compound 3.16 µM
[24] = second compound 1 µM, first compound 10 µM
[25] = second compound 3.16 µM, first compound 0.0316 µM
[26] = second compound 3.16 µM, first compound 0.1 µM
[27] = second compound 3.16 µM, first compound 0.316 µM
[28] = second compound 3.16 µM, first compound 1 µM
[29] = second compound 3.16 µM, first compound 3.16 µM
[30] = second compound 3.16 µM, first compound 10 µM
[31] = second compound 10 µM, first compound 0.0316 µM
[32] = second compound 10 µM, first compound 0.1 µM
[33] = second compound 10 µM, first compound 0.316 µM
[34] = second compound 10 µM, first compound 1 µM
[35] = second compound 10 µM, first compound 3.16 µM
[36] = second compound 10 µM, first compound 10 µM
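Further: spheroids exposed to compounds for 7 days.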

pIC50 (second compound 0.0316 µM): 5.26
pIC50 (second compound 0.1 µM): 5.67
pIC50 (second compound 0.316 µM): 5.97
pIC50 (second compound 1 µM): > 7.50
pIC50 (second compound 3.16 µM): > 7.50
pIC50 (second compound 10 µM): > 7.50
Structure (SMILES): C#Cc1c(F)ccc2cc(O)cc(-c3ncc4c(N5CC6CCC(C5)N6)nc(OCC56CCCN5CC(F)C6)nc4c3F)c12 (stereo unspecified) + Cc1nc(NC(=O)N2CCCC2C(N)=O)sc1-c1ccnc(C(C)(C)C(F)(F)F)c1
viability, T/C [1]: 73.7%
viability, T/C [2]: 78%
viability, T/C [3]: 102%
viability, T/C [4]: 49%
viability, T/C [5]: 70.5%
viability, T/C [6]: 35.6%
viability, T/C [7]: 61.1%
viability, T/C [8]: 77%
viability, T/C [9]: 98.3%
viability, T/C [10]: 58.2%
viability, T/C [11]: 43.8%
viability, T/C [12]: 18.4%
viability, T/C [13]: 39.2%
viability, T/C [14]: 67.5%
viability, T/C [15]: 46.2%
viability, T/C [16]: 51.7%
viability, T/C [17]: 27.1%
viability, T/C [18]: 12.6%
viability, T/C [19]: 23.7%
viability, T/C [20]: 27%
viability, T/C [21]: 28.4%
viability, T/C [22]: 27.9%
viability, T/C [23]: 13.9%
viability, T/C [24]: 7.05%
viability, T/C [25]: 17.1%
viability, T/C [26]: 19.7%
viability, T/C [27]: 11.3%
viability, T/C [28]: 8.79%
viability, T/C [29]: 6.05%
viability, T/C [30]: 1.23%
viability, T/C [31]: 9.19%
viability, T/C [32]: 6.14%
viability, T/C [33]: 3.65%
viability, T/C [34]: 3.37%
viability, T/C [35]: 2.05%
viability, T/C [36]: 0.32%

pIC50 (second compound 0.0316 µM): < 5.00
pIC50 (second compound 0.1 µM): < 5.00
pIC50 (second compound 0.316 µM): > 7.50
pIC50 (second compound 1 µM): > 7.50
pIC50 (second compound 3.16 µM): > 7.50
pIC50 (second compound 10 µM): > 7.50
Structure (SMILES): CC(Cn1ccc(-c2ccc(C#N)c(Cl)c2)n1)NC(=O)c1cc(C(C)O)[nH]n1 (stereo unspecified) + Cc1nc(NC(=O)N2CCCC2C(N)=O)sc1-c1ccnc(C(C)(C)C(F)(F)F)c1
viability, T/C [1]: 107%
viability, T/C [2]: 71.6%
viability, T/C [3]: 83.6%
viability, T/C [4]: 84.8%
viability, T/C [5]: 101%
viability, T/C [6]: 106%
viability, T/C [7]: 68.3%
viability, T/C [8]: 70.4%
viability, T/C [9]: 71.3%
viability, T/C [10]: 72.2%
viability, T/C [11]: 66.3%
viability, T/C [12]: 73.7%
viability, T/C [13]: 37.6%
viability, T/C [14]: 54.1%
viability, T/C [15]: 37.3%
viability, T/C [16]: 50.9%
viability, T/C [17]: 63.7%
viability, T/C [18]: 49.4%
viability, T/C [19]: 24.6%
viability, T/C [20]: 36.8%
viability, T/C [21]: 36.3%
viability, T/C [22]: 34.2%
viability, T/C [23]: 38.6%
viability, T/C [24]: 31.6%
viability, T/C [25]: 17.4%
viability, T/C [26]: 17.7%
viability, T/C [27]: 15.4%
viability, T/C [28]: 17.9%
viability, T/C [29]: 18.8%
viability, T/C [30]: 20.1%
viability, T/C [31]: 9.77%
viability, T/C [32]: 6.96%
viability, T/C [33]: 8.76%
viability, T/C [34]: 9.85%
viability, T/C [35]: 10.7%
viability, T/C [36]: 6%

pIC50 (second compound 0.0316 µM): > 7.50
pIC50 (second compound 0.1 µM): > 7.50
pIC50 (second compound 0.316 µM): > 7.50
pIC50 (second compound 1 µM): > 7.50
pIC50 (second compound 3.16 µM): > 7.50
pIC50 (second compound 10 µM): > 7.50
Structure (SMILES): CC1(C)CCC(Nc2ncc(C(F)(F)F)c(-c3c[nH]c4c(P(C)(C)=O)c(C#N)ccc34)n2)CN1 (stereo unspecified) + Cc1nc(NC(=O)N2CCCC2C(N)=O)sc1-c1ccnc(C(C)(C)C(F)(F)F)c1
viability, T/C [1]: 47.1%
viability, T/C [2]: 45.9%
viability, T/C [3]: 39.3%
viability, T/C [4]: 38.1%
viability, T/C [5]: 33.7%
viability, T/C [6]: 0.64%
viability, T/C [7]: 48.5%
viability, T/C [8]: 36.8%
viability, T/C [9]: 41.9%
viability, T/C [10]: 38.3%
viability, T/C [11]: 32.4%
viability, T/C [12]: 0.39%
viability, T/C [13]: 35.5%
viability, T/C [14]: 33.5%
viability, T/C [15]: 27.3%
viability, T/C [16]: 29.3%
viability, T/C [17]: 25.4%
viability, T/C [18]: 0.33%
viability, T/C [19]: 23.3%
viability, T/C [20]: 22.3%
viability, T/C [21]: 26.7%
viability, T/C [22]: 27.3%
viability, T/C [23]: 14.8%
viability, T/C [24]: 0.53%
viability, T/C [25]: 14.8%
viability, T/C [26]: 17.2%
viability, T/C [27]: 14.7%
viability, T/C [28]: 14.2%
viability, T/C [29]: 6.95%
viability, T/C [30]: 0.84%
viability, T/C [31]: 7.65%
viability, T/C [32]: 5.94%
viability, T/C [33]: 5.07%
viability, T/C [34]: 6.14%
viability, T/C [35]: 2.6%
viability, T/C [36]: 1.22%
